Consider one compound from patent publication US8569229B2, “Compositions and methods which modulate G-protein signaling for the treatment of inflammatory disorders such as asthma and allergic conjunctivitis” (The Children's Hospital of Philadelphia, priority 2008, dated 2013).

The subject of experiment [1] is rabbit ASM tissues. In words: Constrictor responsiveness to acetylcholine (ACh) in isolated rabbit ASM tissues, isometric tension in organ bath. Particulars: tissues exposed 24 hr to the agent. An excerpt:
(§1) Detection of PDE4D5 mRNA transcripts: Total RNA was extracted from the cultured ASM cells using the TRIzol method (Invitrogen), and cDNAs were isolated by RT-PCR using the SuperScript First Strand Synthesis System kit from Invitrogen, with the following oligonucleotide primer sets (Integrated DNA Technologies): for PDE4D5, 5′-[…]-3′ (forward; SEQ ID NO: 2) and 5′-[…]-3′ (reverse; SEQ ID NO: 3); and for β-actin, 5′-[…]-3′ (forward; SEQ ID NO: 4) and 5′-[…]-3′ (reverse; SEQ ID NO: 5). The reaction volume was 20 μl and cycling conditions used were 35 cycles of 30 sec denaturation at 95° C., followed by 30 sec annealing at 60° C. and elongation at 72° C. for 30 sec. Ex-Tag (Takara Biotechnology) was used as DNA polymerase. […] Following protein extraction and the addition of gel-loading buffer, the extracts were loaded on a 10% SDS-PAGE gel for immunoblotting after transfer to a PVDF membrane. The membranes were then incubated overnight with monoclonal mouse anti-human primary antibodies directed against phospho-CREB and -ATF1, phospho-ERK1/2, or α-actin, and levels were detected by ECL after a 1-hr incubation with a 1:2,000 dilution of HRP-conjugated rabbit anti-mouse secondary antibody, followed by exposure to autoradiography film. The protein band intensities were quantified by densitometry. siRNA-mediated knockdown of PKA: ASM cells were seeded into 6-well plates and, at ˜40% confluency, the medium was replaced with the reduced serum-containing medium, Opti-MEM (Invitrogen). The cells were then transfected twice during a 24-hr interval with two pools of three siRNA duplexes, each pool targeted against the human PKAα or PKAγ catalytic subunits (Santa Cruz Biotechnology; sc-36240 and sc-36236, respectively), or with a non-targeted control (scrambled) siRNA duplex, using Oligofectamine (Invitrogen) as the transfection agent. The pools of siRNAs were applied to each well at a final concentration of 100 nM for each siRNA preparation. […] Transfection of ASM cells with adeno-βARK-ct: Adenovirus (adeno)-βARK-ct, an adenovirus vector encoding the βARK1 carboxyl-terminal domain which blocks Gβγ signaling (25,26), and adeno-β-gal, an adenovirus vector expressing lacZ as a negative control, were constructed using the AdenoX adenovirus construction kit (BD-Clontech). Recombinant plaques were isolated and propagated in HEK293 cells (Invitrogen), with viral purification using the cesium chloride gradient method, and viral titer detected by plaque assay. The ASM cells were transfected with either of the adenoviral vectors at a multiplicity of infection (MOI) of 100, and experiments were conducted at 24 hr following adenoviral tranfections. Pharmacodynamic studies of constrictor and relaxation responsiveness in rabbit ASM tissues: Following initial sedation and subsequent general anesthesia with intramuscular injections of xylazine (10 mg/kg) and ketamine (50 mg/kg), respectively, rabbits were sacrificed with an intravenously administered overdose of sodium pentobarbital (100 mg/kg). As described previously (16), the tracheae were excised via open thoracotomy, the loose connective tissue and epithelium were scraped and removed, and the tracheae were divided into 8 ring segments, each of 6-8 mm in length. […] After these incubations, the tissues were placed in organ baths containing modified Krebs-Ringer solution aerated with 5% CO2 in oxygen (pH of 7.35-7.40), and attached to force transducers to continuously monitor isometric tension. […] The constrictor and relaxation dose-response curves were analyzed with respect to each tissue's maximal isometric contractile force (Tmax) to ACh and maximal relaxation response (Rmax) to isoproterenol from the initial level of active cholinergic contraction. Statistical analyses: Results are expressed as mean±SE values. Comparisons between groups were made using the Student's t-test (two-tailed) or ANOVA with Tukey's post-test analysis, where appropriate.

In experiment [2] the test system is rabbit ASM tissues. In words: Relaxation responsiveness to isoproterenol in isolated rabbit ASM tissues half-maximally contracted with ACh.
Source text: as §1

Experiment [3] deals with human ASM cells. In words: Assay of cAMP accumulation in cultured human ASM cells. Particulars: isoproterenol 1.0 μM, 5 min; PGE2 100 nM or salmeterol 10 μM x 24 hr; no rolipram. In kind it is cell-based. An excerpt: Animals: Adult New Zealand White rabbits were used in this study, which was approved by the Biosafety and Animal Research Committee of the Joseph Stokes Research Institute at Children's Hospital of Philadelphia. The animals had no signs of respiratory disease for several weeks before the study, and their care and use were in accordance with the “Guide for the Care and Use of Laboratory Animals” prepared by the Institute of Laboratory Animal Resources, National Research Council. Culture and treatment of ASM cells: The human ASM cells were grown in SmBm media supplemented with 10% FBS (BioWhittaker) and maintained throughout in a humidified incubator containing 5% CO2 in air at 37° C. The experimental protocols involved growing the cells to ˜95% confluence in the above medium. […] Assay of cAMP accumulation: In initial studies, intracellular cAMP levels were determined in near confluent ASM cell cultures at varying times following treatment of ASM cells with varying concentrations of isoproterenol (0.1 to 100 μM). […]
Thereafter, in the continued presence of these treatments, cells were exposed for 5 min to isoproterenol (10 μM) at 37° C., and intracellular cAMP concentrations were determined per manufacturer's protocols using a direct cAMP Enzyme Immunoassay Kit (R&D Systems, Minneapolis, Minn.). In both cases, the cAMP measurements were expressed in units of picomoles/milligram protein.
On the technique in general: cAMP levels reflect the balance of adenylyl cyclase and phosphodiesterase activity.

In experiment [4] the test system is human ASM cells. In words: Assay of cAMP PDE activity in ASM cell lysates. It counts as cell-based. As for the experimental part:
Assay of cAMP PDE activity: Levels of cAMP PDE activity were assayed in ASM cell lysates using a colorimetric, non-radioactive enzymatic assay kit from Biomol, as per the manufacture's protocol. PDE activity was determined following exposure of ASM cells for 24 hr to either vehicle alone (control), PGE2 (100 μM), or forskolin (100 μM) in the absence and presence of pretreatment with rolipram (10 μM), cycloheximide (100 μM), actinomycin D (4 μM), or H89 (10 μM).
In each case, the measured levels of PDE activity were standardized to the protein content in the cell extracts.

Another experiment relates to PDE4D5 mRNA. In words: Detection of PDE4D5 mRNA transcripts by RT-PCR in ASM cells. In kind it is cell-based, human. Particulars: PGE2 100 nM, salmeterol or isoproterenol 10 μM.
Source text: as §1

A further experiment relates to CREB/ATF1. In words: Immunoblot analysis of CREB/ATF1 phosphorylation in ASM cells. In kind it is cell-based, human. Particulars: PGE2 100 nM; isoproterenol 10 μM.
Source text: as §1

A further experiment concerns ERK1/2. In words: Immunoblot analysis of ERK1/2 phosphorylation in ASM cells. It counts as cell-based, human.
Source text: as §1
(In general: A western blot detects proteins with antibodies after separation by electrophoresis.)

“Also recorded” adds a separate entry of the source.

Consider `CCCCC[C@H](O)/C=C/[C@H]1[C@H](O)CC(=O)[C@@H]1C/C=C\CCCC(=O)O` [PGE2, prostaglandin (PG)E2], for which the “constrictor responsiveness to ACh relative to vehicle-treated controls” value with rabbit ASM tissues [1] is recorded as “significantly increased constrictor responses; also recorded: increased constrictor responsiveness”. The “maximal relaxation (Rmax) response to isoproterenol” value with rabbit ASM tissues [2] (mean±SE, tissues exposed 24 hr to the agent (PGE2 100 nM; salmeterol 10 μM)) is on record as 31.4±5.4%. Further, in the experiment on rabbit ASM tissues [2] (tissues exposed 24 hr to the agent), the “relaxation responsiveness to isoproterenol relative to vehicle-treated controls” value is on record as “impaired relaxation responses; also recorded: impaired ASM relaxation”. Also, in the experiment on human ASM cells [3], the “isoproterenol-induced cAMP accumulation after 24 hr exposure to the agent” value was “significantly reduced cAMP responses; also recorded: significantly attenuated”. Moreover, in the experiment on human ASM cells [4] (cells exposed 24 hr to the agent), the “cAMP PDE (PDE4) activity relative to vehicle-treated control cells” value was “significantly increased; also recorded: significant increase”. Also, the “PDE activity, fold above control” value with human ASM cells [4] (cells incubated 24 hr with the agent (PGE2 or forskolin 100 μM; salmeterol or isoproterenol 10 μM)) is listed as 3.74 fold. Further, the “time of peak PDE4D5 mRNA induction” value with PDE4D5 mRNA came out at 6 h. Further, the “peak PDE4D5 mRNA expression, fold above unstimulated cells” value with PDE4D5 mRNA (densitometric analysis, 3 experiments) is 5.9 fold. Also, in the experiment with CREB/ATF1, the “phosphorylation of CREB and ATF1 in cells treated with the agent” value is “transiently increased phosphorylation; also recorded: transiently upregulated expression”; the “time of peak CREB/ATF1 phosphorylation” value is recorded as 30 min. Besides, the “time of peak ERK1/2 phosphorylation” value with ERK1/2 (PGE2 100 nM, isoproterenol or salmeterol 10 μM) worked out at 30 min. Also, the “ERK1/2 phosphorylation in cells treated with the agent” value in the experiment on ERK1/2 (PGE2 or forskolin 100 nM, isoproterenol or salmeterol 10 μM) was “increased expression of phosphorylated ERK1/2; also recorded: significantly increased”. Also, the “increase in ERK1/2 phosphorylation, fold above control (vehicle-treated) cells” value in the experiment with ERK1/2 (densitometric ratios, mean±SE, PGE2 30 min, isoproterenol 20 min) was 3.76±0.64 fold.
